Values joined by “and” are separate entries in the source; they are usually repeats but may differ in a detail not shown here. Equal entries are not always repeated.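 Five concentrations, 48 hours, 96-well plates. GI50 marks 50% less growth. TGI: total growth inhibition.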

Holding throughout (assay): inhibition of tumour cell growth, NCI panel, 48 h
In assay [1] the test system is HOP-92 NSCLC.
For assay [2], the system named is NCI-H460 lung.
Assay [3] has as its system COLO 205 colon.
Assay [4] concerns NCI-H23 lung.
The subject of assay [5] is A549 NSCLC.
In assay [6] the test system is HL-60(TB) leukemia.
The subject of assay [7] is RPMI-8226 leukemia.
In assay [8] the test system is NCI-H226 lung.
The subject of assay [9] is SN12C renal.
Assay [10] relates to LOX IMVI melanoma.

Consider `C=C1C(=O)O[C@H]2[C@H]1CC/C(COC(=O)NCCCCCCCCNC(=O)OC/C1=C/CC[C@@]3(C)O[C@H]3[C@H]3OC(=O)C(=C)[C@@H]3CC1)=C\CC[C@@]1(C)O[C@@H]21`, for which the GI50 in [1] is 0.177 µM; in assay [2], 1.75 µM; in assay [3] it was 0.3 µM; in [4], 0.485 µM; in [5], 1.7 µM; in assay [6] it was 0.268 µM. Also, the GI50 in assay [7] was 0.25 µM; in assay [8] it was 1.81 µM; in [9], 0.264 µM; in assay [10], 0.178 µM. The TGI in [1] came out at 0.551 µM; in assay [2] it was 3.98 µM; in [3] it was 0.756 µM; in assay [4], 1.74 µM; in [5] it was 3.51 µM; in assay [6], 0.869 µM. The TGI in [7] was 0.745 µM; in assay [8], 4.39 µM; in assay [9] it was 0.849 µM; in assay [10] it was 0.368 µM.

Take `Cc1cc(=O)oc2cc(OC/C=C3\CCC(=O)O3)ccc12`: the GI50 is 12.1 µM in assay [1]; 19.3 µM in [2]; 5.8 µM in assay [3]; 14.4 µM in assay [4]; 31.2 µM in [5]; 4.47 µM in assay [6]. Also, the GI50 in assay [7] is 3.2 µM; in assay [8] it was 24 µM; in assay [9] it was 15.2 µM; in [10] it was 7.99 µM. Also, the TGI in [1] was 28.4 µM; in [2], over 62.7 µM; in assay [3], 20.5 µM; in assay [4] it was 29.9 µM; in assay [5], over 91.4 µM; in assay [6], 32.2 µM. For the same compound, the TGI is 18.7 µM in assay [7], over 63.1 µM in assay [8], 34.9 µM in [9] and 22.9 µM in assay [10].

Consider `COc1ccc2c(c1)C(=O)c1c-2c(Nc2cccc(C(C)=O)c2)nc2ccccc12`, for which the GI50 in assay [1] was 11.1 µM; in assay [2], 23.5 µM; in assay [3] it was 37.9 µM; in assay [4], 4.86 µM; in assay [5], 17.7 µM; in assay [6], over 100 µM. Besides, the GI50 in assay [7] is 17.5 µM; in assay [8], 11.7 µM; in [9] it was 10.3 µM; in assay [10], 13.4 µM. Also, the TGI is 27.7 µM in assay [1]; over 100 µM in [2]; over 100 µM in assay [3]; 19.3 µM in assay [4]; 40.5 µM in assay [5]; over 100 µM in assay [6]. The TGI in [7] came to 70.7 µM; in assay [8] it was 35.8 µM; in [9] it was 40.1 µM; in assay [10], 27.5 µM.

Turning to `O=C1C=CC2(C=C1)C[C@H](NC(=O)OCc1ccccc1)C(=O)O2`, the TGI in assay [1] was 29.9 µM; in [2], 59.9 µM; in assay [3], 18.3 µM; in [4], 32.5 µM; in assay [5], over 78.5 µM; in assay [6], 7.58 µM. The TGI in assay [7] was 17.2 µM; in assay [8], over 86.7 µM; in assay [9], 32.7 µM; in assay [10], 31.8 µM.

With `COc1ccc(OC)c(/C=C/c2nc(SCc3ccccc3)n(-c3ccc(Cl)cc3)n2)c1`, the GI50 is over 100 µM in [1]; 4.17 µM in assay [2]; 14.6 µM in [3]; 6.85 µM in assay [4]; 6.79 µM in assay [5]; 3.14 µM in [6]. The GI50 is 7.39 µM in [7], 27.8 µM in [8], 8.1 µM in assay [9] and 2.89 µM in assay [10]. For the same compound, the TGI was over 100 µM in assay [1]; over 100 µM in [2]; over 100 µM in assay [3]; over 100 µM in assay [4]; over 100 µM in [5]; 9.86 µM in assay [6]. In addition, the TGI in [7], in [8], in assay [9] and in assay [10] was over 100 µM in each case.

In the case of `COc1cccc2c1C(=O)c1c(O)c3c(c(O)c1C2=O)CC(O)(C(=O)CO)CC3OC1CC(N)C(O)C(C)O1` (configuration not stated), the GI50 in [1] was 23.9 mg/L and 7.86 mg/L; in assay [2], 0.709 mg/L and 0.986 mg/L; in assay [3] it was 9.99 mg/L and 25.6 mg/L; in assay [4] it was 11.3 mg/L and 49.1 mg/L; in [5], 4.17 mg/L and 22.6 mg/L; in [6], 2.84 mg/L and 26.4 mg/L. For the same compound, the GI50 in [7] was 7.24 mg/L and 13.2 mg/L; in assay [8], 1.75 mg/L and 7.36 mg/L; in [9] it was 14.4 mg/L and 13 mg/L; in assay [10], 3.89 mg/L and 19.5 mg/L. Besides, the TGI was 75 mg/L and 127 mg/L in [1]; 75 mg/L and 27.3 mg/L in assay [2]; 75 mg/L and > 150 mg/L in [3]; 75 mg/L and > 150 mg/L in [4]; 75 mg/L and > 150 mg/L in assay [5]; 75 mg/L and > 150 mg/L in [6]. For the same compound, the TGI in assay [7] is 75 mg/L and 112 mg/L; in assay [8], 12.6 mg/L and 28.5 mg/L; in [9] it was 75 mg/L and > 150 mg/L; in assay [10] it was 75 mg/L and > 150 mg/L.

Regarding `CCCCCCCCCCCCCB(O)O`, the GI50 in [1] is > 100 µM and 25.1 µM; in assay [5], > 100 µM and 48.5 µM. In addition, the TGI was > 100 µM and 82.9 µM in assay [1]; over 100 µM in [2]; over 100 µM in [3]; over 100 µM in assay [4]; over 100 µM in assay [5]; > 100 µM and 42.5 µM in [6]. Besides, the TGI in [8], in assay [9] and in assay [10] was over 100 µM in each case.

For `CC1CC[P+](c2ccccc2)(c2ccccc2)CC1`, the TGI in assay [2], in assay [3], in assay [4], in assay [5], in [6] and in [7] was over 100 µM each time. Moreover, the TGI in assay [8], in assay [9] and in assay [10] was over 100 µM each time.

In the case of `COc1ccc2nc(NC(=O)C(=O)NNC(=O)c3ccncc3)sc2c1`, the TGI in assay [1], in assay [2], in [3], in [4], in assay [5] and in assay [6] was over 100 µM throughout. Besides, the TGI in [8], in assay [9] and in [10] was over 100 µM in each case.

As for `COc1cccc(NC(=O)C(=O)C2C=CCS2(=O)=O)c1` (configuration not stated), the TGI in assay [2], in [3], in assay [4], in [5], in [6] and in assay [7] was over 100 µM each time. Besides, the TGI in [8], in [9] and in assay [10] was over 100 µM throughout.

As to `COc1cc(/C=C2\C[C@H]3[C@@H]4CC=C5C[C@@H](OC(C)=O)CC[C@]5(C)[C@H]4CC[C@]3(C)[C@H]2OC(C)=O)ccc1OCCN1CCCC1`, the GI50 in assay [1] is 5.45 µM; in [2] it was 10.2 µM; in assay [3], 13.3 µM; in assay [4], 10.1 µM; in [5] it was 10.9 µM; in assay [6] it was 10.3 µM. The GI50 in assay [7] is 1.07 µM; in assay [8], 9.67 µM; in [9] it was 7.79 µM. The TGI is 13.4 µM in [1]; 23.1 µM in [2]; over 50 µM in assay [3]; 19 µM in assay [4]; 21.6 µM in [5]; 20.6 µM in assay [6]. In addition, the TGI in assay [7] came out at 13.4 µM; in [8] it was 18.6 µM; in [9] it was 15.7 µM.

On to `C/C(=N/Nc1nc(C)cc(=O)[nH]1)C(=O)O`, for which the TGI in assay [2], in assay [3], in [4], in assay [5], in assay [6] and in assay [7] was over 100 µM in each case. Moreover, the TGI in [8], in assay [9] and in [10] was over 100 µM in each case.

Consider `c1ccc2c(NCCCCCCNc3cccc4ccccc34)cccc2c1`, for which the TGI in [1], in assay [2], in assay [3], in assay [4], in [5] and in assay [6] was over 100 µM throughout. The TGI in assay [7], in [8] and in [9] was over 100 µM in each case.

Take `c1ccc(N/N=C2\NN=C(c3ccccc3)CS2)cc1`: the TGI in assay [1] was 31.9 µM; in [2], 51.4 µM; in assay [4], 52.3 µM; in assay [5] it was 22.2 µM; in assay [6], over 100 µM; in [8], over 100 µM. Moreover, the TGI in [10] came out at 15.3 µM.

Consider `[O-]c1c2c(nn1-c1ccc(Cl)cc1)c1ccccc1c[n+]2Cc1ccccc1`, for which the TGI in assay [2], in assay [3], in [4], in assay [5], in assay [6] and in [7] was over 100 µM throughout. The TGI in assay [8], in assay [9] and in [10] was over 100 µM each time.

With `Cc1ccccc1C1CC(c2ccccc2)=NO1` (configuration not stated), the TGI in assay [1], in [2], in assay [3], in [4], in assay [5] and in [6] was over 100 µM throughout. Further, the TGI in assay [7], in [8] and in assay [9] was over 100 µM each time.

Turning to `CCOC(=O)c1cccnc1C(OC(C)=O)OC(C)=O`, the TGI in [1], in assay [2], in assay [3], in [4], in [5] and in [6] was over 100 µM throughout. Further, the TGI in assay [8], in assay [9] and in assay [10] was over 100 µM each time.

In the case of `CCOC(=O)C(C(O)c1ccc([N+](=O)[O-])cc1)P(=O)(OCC)OCC` (configuration not stated), the TGI in [1] is 99.5 µM; in [2], over 100 µM; in assay [4] it was over 100 µM; in [5], over 100 µM; in assay [6], 64 µM; in assay [7] it was over 100 µM. The TGI in [8], in [9] and in [10] was over 100 µM throughout.

`CCOC1CC2OC(=O)C1C=C2C(=O)OC` (configuration not stated): the TGI is 73.1 µM in assay [1]; over 100 µM in assay [2]; 37.2 µM in assay [3]; 44.2 µM in [4]; over 100 µM in assay [5]; 46.8 µM in [6]. Moreover, the TGI was 53.9 µM in assay [7], over 100 µM in [8] and over 100 µM in assay [10].

On to `CC1=C([Se]CC(OC(=O)[C@@H](CO)NC(=O)OC(C)(C)C)C(=O)NCCCCCC(=O)OCc2ccccc2)C(=O)c2ccccc2C1=O` (some centres not stated), for which the GI50 in [1] was 1.87 µM; in assay [2] it was 0.462 µM; in assay [3] it was 1.82 µM; in assay [5], 1.37 µM; in [6], 2.03 µM; in assay [7], 2.18 µM. For the same compound, the GI50 is 2.25 µM in assay [8], 1.95 µM in [9] and 1.84 µM in [10]. Also, the TGI in [1] was 3.32 µM; in assay [2], 1.61 µM; in assay [3], 3.35 µM; in assay [5], 3.07 µM; in assay [6], 4.82 µM; in assay [7] it was 5.83 µM. The results for the TGI in [8], in assay [9] and in assay [10] were 4.41 µM, 3.59 µM and 3.72 µM, respectively.

For the compound `COC1=CC(=O)c2nc(Cl)ccc2C1=O`, the GI50 in assay [2] is 14 µM; in assay [3] it was 2.31 µM; in assay [4] it was 1.59 µM; in assay [5], 12.8 µM; in assay [6], 2.01 µM; in [7], 2.59 µM. The GI50 in assay [8] is 7.61 µM; in assay [9] it was 1.72 µM; in assay [10], 1.38 µM. Also, the TGI in [2] is 29.3 µM; in assay [3], 4.98 µM; in [4], 3.33 µM; in assay [5], 26.1 µM; in [6], 7.61 µM; in assay [7] it was 7.9 µM. Moreover, the TGI in assay [8] stood at 21.5 µM; in assay [9] it was 3.19 µM; in assay [10] it was 2.8 µM.

(Values after PubChem BioAssay (NCI).)
